Reference: ChEMBL document CHEMBL3638545 (2015)

Target: Sodium channel protein type 5 subunit alpha (Homo sapiens, UniProt Q14524)
Experiment: Electrophysiological Assay: Patch voltage clamp electrophysiology allows for the direct measurement and quantification of block of voltage-gated sodium channels (NaV's), and allows the determination of the time- and voltage-dependence of block which has been interpreted as differential binding to the resting, open, and inactivated states of the sodium channel (Hille, B., Journal of General …
Format: cell-based, HEK293

Sodium channel protein type 5 subunit alpha, sequence (Q14524 whole entry): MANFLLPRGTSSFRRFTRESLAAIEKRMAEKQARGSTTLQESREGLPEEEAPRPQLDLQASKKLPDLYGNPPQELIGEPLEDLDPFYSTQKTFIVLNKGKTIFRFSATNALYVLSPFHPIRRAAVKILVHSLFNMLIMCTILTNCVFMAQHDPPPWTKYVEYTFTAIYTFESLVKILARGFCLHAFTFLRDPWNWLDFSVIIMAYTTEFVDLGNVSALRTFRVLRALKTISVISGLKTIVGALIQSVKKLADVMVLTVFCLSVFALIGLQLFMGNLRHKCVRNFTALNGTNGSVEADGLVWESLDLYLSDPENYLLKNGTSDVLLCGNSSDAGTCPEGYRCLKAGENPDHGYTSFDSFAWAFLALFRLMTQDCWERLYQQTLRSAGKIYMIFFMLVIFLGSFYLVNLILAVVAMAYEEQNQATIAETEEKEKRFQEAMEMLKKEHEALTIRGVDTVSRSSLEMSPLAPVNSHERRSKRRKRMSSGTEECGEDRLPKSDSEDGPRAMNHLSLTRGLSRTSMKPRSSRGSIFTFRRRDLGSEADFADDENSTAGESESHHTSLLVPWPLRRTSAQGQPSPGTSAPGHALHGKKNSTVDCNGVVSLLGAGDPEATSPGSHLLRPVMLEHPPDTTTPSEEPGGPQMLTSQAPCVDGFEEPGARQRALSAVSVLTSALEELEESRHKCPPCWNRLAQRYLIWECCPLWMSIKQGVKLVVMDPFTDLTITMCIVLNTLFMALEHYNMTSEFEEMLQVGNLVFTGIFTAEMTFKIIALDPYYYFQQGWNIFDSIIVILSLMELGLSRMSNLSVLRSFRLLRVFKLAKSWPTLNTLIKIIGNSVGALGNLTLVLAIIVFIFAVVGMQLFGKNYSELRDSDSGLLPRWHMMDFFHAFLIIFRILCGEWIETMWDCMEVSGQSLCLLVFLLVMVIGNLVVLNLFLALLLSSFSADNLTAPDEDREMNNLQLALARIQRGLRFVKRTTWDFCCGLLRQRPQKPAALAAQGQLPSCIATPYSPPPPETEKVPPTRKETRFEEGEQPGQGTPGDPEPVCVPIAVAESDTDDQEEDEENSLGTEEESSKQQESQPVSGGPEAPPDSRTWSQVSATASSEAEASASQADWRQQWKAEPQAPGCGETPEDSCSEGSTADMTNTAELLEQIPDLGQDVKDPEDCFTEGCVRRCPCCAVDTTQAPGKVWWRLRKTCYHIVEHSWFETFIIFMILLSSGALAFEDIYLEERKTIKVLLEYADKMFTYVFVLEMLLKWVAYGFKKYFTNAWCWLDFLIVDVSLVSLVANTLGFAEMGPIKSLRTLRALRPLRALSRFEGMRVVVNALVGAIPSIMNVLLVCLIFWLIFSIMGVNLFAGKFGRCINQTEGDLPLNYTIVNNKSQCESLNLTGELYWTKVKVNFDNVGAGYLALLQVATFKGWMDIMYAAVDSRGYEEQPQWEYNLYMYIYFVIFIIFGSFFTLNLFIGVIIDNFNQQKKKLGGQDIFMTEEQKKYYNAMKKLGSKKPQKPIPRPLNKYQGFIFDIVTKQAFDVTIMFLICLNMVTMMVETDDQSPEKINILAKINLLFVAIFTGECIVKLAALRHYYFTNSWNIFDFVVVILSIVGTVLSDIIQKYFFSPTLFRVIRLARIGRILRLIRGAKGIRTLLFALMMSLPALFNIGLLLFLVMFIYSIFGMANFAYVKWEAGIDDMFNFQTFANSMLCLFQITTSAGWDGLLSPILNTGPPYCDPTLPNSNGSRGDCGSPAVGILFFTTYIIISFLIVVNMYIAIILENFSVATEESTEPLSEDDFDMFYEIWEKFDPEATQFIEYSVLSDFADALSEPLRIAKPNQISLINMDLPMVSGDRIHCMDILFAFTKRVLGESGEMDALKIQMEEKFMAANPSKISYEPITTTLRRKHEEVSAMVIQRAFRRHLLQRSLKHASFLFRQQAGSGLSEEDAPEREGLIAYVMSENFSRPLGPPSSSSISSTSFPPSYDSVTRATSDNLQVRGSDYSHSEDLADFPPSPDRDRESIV

With `O=C(NS(=O)(=O)N1CCOCC1)c1cc(C2CC2)c(OCC23CC4CC(CC(C4)C2)C3)cc1F` the IC50 was 14 nM.

`O=C(NS(=O)(=O)N1CCC1)c1cc(C2CC2)c(OCC2(C(F)(F)F)CCCCC2)cc1F` gave an IC50 of 350 nM.

`CS(=O)(=O)NC(=O)c1cc(C2CC2)c(OCC23CC4CC(C2)C(F)(F)C(C4)C3)cc1F` showed an IC50 of 714 nM.

`CN(C)S(=O)(=O)NC(=O)c1cc(Cl)c(OCC23CC4CC(CC(C4)C2)C3)cc1F` showed an IC50 of 772 nM.

For `CC1(C)CCc2cc(OCc3cc(F)c(C(=O)NS(=O)(=O)N4CCC4)cc3Cl)ccc2O1`, the IC50 was 653 nM.

`COCCS(=O)(=O)NC(=O)c1cc(C2CC2)c(OCC23CC4CC(CC(C4)C2)C3)cc1F` gave an IC50 of 101 nM.

For `O=C(NS(=O)(=O)N1CCC1)c1cc(C2CC2)c(OCC23CC4(F)CC(F)(CC(F)(C4)C2)C3)cc1F`, the IC50 was 950 nM.
